Laboratory results reported in US20190241569A1, “3-(ARYL OR HETEROARYL) METHYLENEINDOLIN-2-ONE DERIVATIVES AS INHIBITORS OF CANCER STEM CELL PATHWAY KINASES FOR THE TREATMENT OF CANCER” (Boston Biomedical, Inc., priority 2013, published 2019).

Legend:
Type in all cases: cell-based
[1] = system: FaDu CSC; test: Cancer stem cells, Cell Titer-Glo 72 hours (Test Example 3); conditions: Homo sapiens, FaDu, 72 h
[2] = system: FaDu; test: Bulk cancer cells, Cell Titer-Glo 72 hours (Test Example 2); conditions: Homo sapiens
Experimental: (§1) Tubes of 3× drug (60 uM in 500 uL complete media) were prepared from 5 mM stock solutions in DMSO. […] To treat cells, 50 uL of drug from the dilution plate was removed and added to the cell plates. […] Cells were harvested 72 hours after drug addition using Cell Titer-Glo (Promega) and luminescence measured on a plate reader.

[3] = system: ACHN; test: as above; conditions: Homo sapiens, ACHN, 72 h
Experimental: as §1

[4] = system: A549; test: as above; conditions: Homo sapiens
Experimental: as §1

Row | Compound | IC50 [1] | IC50 [2] | IC50 [3] | IC50 [4]
1 | Cc1[nH]c(/C=C2\C(=O)Nc3ccc(-c4cnn(-c5ccccc5)c4C)cc32)c(C)c1C(=O)N1CCN(C)CC1 [Example 5] | 14.8 µM |  |  | 
2 | CCN(CC)CCNC(=O)c1c(C)[nH]c(/C=C2\C(=O)Nc3ccc(C4CCN(C5CCOCC5)CC4)cc32)c1C [Example 12] |  | 23.9 µM |  | 
3 | Cc1[nH]c(/C=C2\C(=O)Nc3ccc(-c4cnn(-c5ccccc5)c4C)cc32)c(C)c1C(=O)N1CCOCC1 [Example 13] | 37.2 µM | 6.76 µM |  | 
4 | Cc1[nH]c(/C=C2\C(=O)Nc3ccc(-c4ccc(-c5ccccc5)s4)cc32)c(C)c1C(=O)NCCN1CCCC1 [Example 14] | 1.64 µM | 4.44 µM |  | 
5 | CCN(CC)CCNC(=O)c1c(C)[nH]c(/C=C2\C(=O)Nc3ccc(-c4cnc(-c5ccccc5)o4)cc32)c1C [Example 17] | 41.5 µM | 9.73 µM | 12.2 µM | 
6 | Cc1[nH]c(/C=C2\C(=O)Nc3ccc(-c4cnc(-c5ccccc5)o4)cc32)c(C)c1C(=O)N1CCN(C)CC1 [Example 18] | 9.35 µM | 12.1 µM |  | 
7 | Cc1[nH]c(/C=C2\C(=O)Nc3ccc(-c4ncc(-c5ccccc5)o4)cc32)c(C)c1C(=O)N1CCN(C)CC1 [Example 20] | 2.38 µM |  |  | 
8 | Cc1[nH]c(/C=C2\C(=O)Nc3ccc(-c4ccnn4-c4ccccc4)cc32)c(C)c1C(=O)N1CCN(C)CC1 [Example 23] | 11.5 µM | 4.55 µM |  | 
9 | Cc1[nH]c(/C=C2\C(=O)Nc3ccc(-c4ccnn4-c4ccc(C#N)cc4)cc32)c(C)c1C(=O)N1CCN(C)CC1 [Example 24] | 48.2 µM |  |  | 
10 | CCN(CC)CCNC(=O)c1c(C)[nH]c(/C=C2\C(=O)Nc3ccc(-c4ccnn4-c4ccc(C#N)cc4)cc32)c1C [Example 25] | 4.96 µM | 17.3 µM |  | 
11 | Cc1[nH]c(/C=C2\C(=O)Nc3ccc(-c4cnn(-c5ccccc5)c4C)cc32)c(C)c1C(=O)NCCN1CCCC1 [Example 28] | 1.31 µM | 5.79 µM |  | 
12 | Cc1[nH]c(/C=C2\C(=O)Nc3ccc(-c4cnn(-c5ccccn5)c4)cc32)c(C)c1C(=O)N1CCOCC1 [Example 30] | 8.94 µM |  |  | 
13 | CCN(CC)CCNC(=O)c1c(C)[nH]c(/C=C2\C(=O)Nc3ccc(-c4oc(-c5ccccc5)nc4C)cc32)c1C [Example 34] | 18.2 µM |  |  | 
14 | CCN(CC)CCNC(=O)c1c(C)[nH]c(/C=C2\C(=O)Nc3ccc(-c4cnc(-c5ccccc5)[nH]4)cc32)c1C [Example 41] |  | 5.34 µM | 20.6 µM | 
15 | CCN(CC)CCNC(=O)c1c(C)[nH]c(/C=C2\C(=O)Nc3ccc(C4CCN(c5ncccn5)CC4)cc32)c1C [Example 43] | 18.8 µM | 6.47 µM |  | 
16 | Cc1[nH]c(/C=C2\C(=O)Nc3ccc(-c4cnc(-c5ccccc5)[nH]4)cc32)c(C)c1C(=O)N1CCN(C)CC1 [Example 44] | 13.2 µM | 5.54 µM |  | 
17 | CC(=O)N1CCC(N2CCC(c3ccc4c(c3)/C(=C/c3[nH]c(C)c(C(=O)N5CCN(C)CC5)c3C)C(=O)N4)CC2)CC1 [Example 46] | 15.6 µM | 23.2 µM |  | 
18 | CCN(CC)CCNC(=O)c1c(C)[nH]c(/C=C2\C(=O)Nc3ccc(-n4cc(-c5ccccc5)nn4)cc32)c1C [Example 49] | 3 µM | 6.58 µM | 7.16 µM | 
19 | CCN(CC)CCNC(=O)c1c(C)[nH]c(/C=C2\C(=O)Nc3ccc(-c4nc(-c5ccccc5)n[nH]4)cc32)c1C [Example 50] | 2.8 µM | 6.16 µM |  | 
20 | CCN(CC)CCNC(=O)c1c(C)[nH]c(/C=C2\C(=O)Nc3ccc(-c4nnc(-c5ccccc5)o4)cc32)c1C [Example 53] | 21.5 µM | 8.23 µM |  | 
21 | CCN(CC)CCNC(=O)c1c(C)[nH]c(/C=C2\C(=O)Nc3ccc(-c4cnc(-c5ccccc5)s4)cc32)c1C [Example 54] |  | 23.7 µM |  | 
22 | Cc1ccc(-c2nc(-c3ccc4c(c3)/C(=C/c3[nH]c(C)c(C(=O)N5CCOCC5)c3C)C(=O)N4)cs2)cc1 [Example 105] |  | 3.05 µM |  | 
23 | CCOC(=O)c1c(C)[nH]c(/C=C2\C(=O)Nc3ccc(-c4csc(-c5ccccc5)n4)cc32)c1C [Example 108] | 20.2 µM |  |  | 
24 | CCN(CC)CCNC(=O)c1c(C)[nH]c(/C=C2\C(=O)Nc3ncc(-c4csc(-c5ccccc5)n4)cc32)c1C [Example 116] | 1.6 µM |  |  | 
25 | Cc1[nH]c(/C=C2\C(=O)Nc3ncc(-c4csc(-c5ccccc5)n4)cc32)c(C)c1C(=O)N1CCN(C)CC1 [Example 117] |  | 39.2 µM |  | 
26 | CCN(CC)CCNC(=O)c1c(C)[nH]c(/C=C2\C(=O)Nc3cnc(-c4csc(-c5ccccc5)n4)cc32)c1C [Example 120] | 4.75 µM | 11.2 µM |  | 
27 | CN1CCN(C(=O)c2ccc(/C=C3\C(=O)Nc4ccc(-c5csc(-c6ccccc6)n5)cc43)[nH]c2=O)CC1 [Example 122] | 23.2 µM |  |  | 

Row | Compound | IC50 [1] | IC50 [2] | IC50 [3] | IC50 [4]
28 | O=C1Nc2ccc(-c3csc(-c4ccccc4)n3)cc2/C1=C/c1ccc(C(=O)NCCN2CCOCC2)c(=O)[nH]1 [Example 123] | 33.7 µM |  |  | 
29 | CCN(CC)CCNC(=O)c1c(C)[nH]c(/C=C2\C(=O)Nc3ccc(-c4csc(-c5ccccn5)n4)cc32)c1C [Example 124] |  | 46.9 µM |  | 
30 | CCN(CC)CCNC(=O)c1c(C)[nH]c(/C=C2\C(=O)Nc3ccc(-c4csc(-c5ccc(Br)cc5)n4)cc32)c1C [Example 125] | 1.33 µM | 3.68 µM |  | 
31 | CCN(CC)CCNC(=O)c1c(C)[nH]c(/C=C2\C(=O)Nc3ccc(-c4csc(-c5cccc(Br)c5)n4)cc32)c1C [Example 127] | 7.82 µM | 24.8 µM |  | 
32 | CCN(CC)CCNC(=O)c1c(C)[nH]c(/C=C2\C(=O)Nc3ccc(-c4cs/c(=N\c5ccccc5)n4C)cc32)c1C [Example 132] | 2.17 µM | 5.35 µM |  | 
33 | CCOC(=O)CCc1cccc(-c2nc(-c3ccc4c(c3)/C(=C/c3[nH]c(C)c(C(=O)NCCN(CC)CC)c3C)C(=O)N4)cs2)c1 [Example 134] | 2.34 µM |  |  | 
34 | CCOC(=O)CCc1ccc(-c2nc(-c3ccc4c(c3)/C(=C/c3[nH]c(C)c(C(=O)NCCN(CC)CC)c3C)C(=O)N4)cs2)cc1 [Example 136] | 2.52 µM |  |  | 
35 | Cc1cc(C)c(/C=C2\C(=O)Nc3ccc(-c4csc(-c5ccccc5)n4)cc32)[nH]1 [Example 138] | 6.49 µM | 7.87 µM | 5.31 µM | 
36 | Cc1[nH]c(/C=C2\C(=O)Nc3ccc(-c4csc(C5CCNCC5)n4)cc32)c(C)c1C(=O)O [Example 142] | 5.62 µM |  |  | 
37 | Cc1[nH]c(/C=C2\C(=O)Nc3ccc(-c4csc(-c5ccncc5)n4)cc32)c(C)c1CCC(=O)O [Example 154] |  |  | 14.6 µM | 
38 | O=C1Nc2ccc(-c3csc(-c4ccncc4)n3)cc2/C1=C/c1cc2ccccc2[nH]1 [Example 158] | 3.07 µM |  |  | 
39 | O=C1Nc2ccc(-c3csc(-c4ccccc4)n3)cc2/C1=C/c1cc2ccccc2[nH]1 [Example 159] |  | 49.3 µM |  | 
40 | O=C1Nc2ccc(-c3csc(-c4ccccc4)n3)cc2/C1=C/c1[nH]c(C(=O)O)c2c1CCCC2 [Example 163] | 4.49 µM |  | 24.9 µM | 
41 | CCN(CC)CCNC(=O)c1[nH]c(/C=C2\C(=O)Nc3ccc(-c4csc(-c5ccccc5)n4)cc32)c2c1CCCC2 [Example 166] |  |  | 9.91 µM | 
42 | O=C1Nc2ccc(-c3csc(-c4ccccc4)n3)cc2/C1=C/c1ccc(N2CCOCC2)cc1 [Example 172] |  | 35.5 µM |  | 
43 | O=C1Nc2ccc(-c3csc(-c4ccncc4)n3)cc2/C1=C/c1ccc(N2CCOCC2)cc1 [Example 173] |  | 17.5 µM |  | 
44 | Cc1cc(C)c(/C=C2\C(=O)Nc3ccc(-c4ccc5ccccc5n4)cc32)[nH]1 [Example 214] |  |  | 7.44 µM | 
45 | COc1cccnc1-c1ccc2c(c1)/C(=C/c1[nH]c(C)cc1C)C(=O)N2 [Example 222] |  | 33.2 µM |  | 
46 | COc1ccc(-c2ccc3c(c2)/C(=C/c2[nH]c(C)cc2C)C(=O)N3)nc1 [Example 227] |  |  |  | 0.07 µM
47 | Cc1cc(C)c(/C=C2\C(=O)Nc3cc(-c4ccc(-c5ccccc5)nc4)ccc32)[nH]1 [Example 241] | 18.2 µM |  |  | 
48 | Cc1cc(C)c(/C=C2\C(=O)Nc3cc(-c4cnc5ccnn5c4)ccc32)[nH]1 [Example 243] | 14.9 µM |  |  | 
49 | Cc1cc(C)c(/C=C2\C(=O)Nc3cc(-c4cccc(C#N)c4C)ccc32)[nH]1 [Example 245] | 39.1 µM |  |  | 
50 | Cc1cc(C)c(/C=C2\C(=O)Nc3cc(-c4cnc5ccccn45)ccc32)[nH]1 [Example 247] |  | 19.4 µM | 20.6 µM | 
51 | Cc1cc(C)c(/C=C2\C(=O)Nc3cc(-c4ccc5ccccc5n4)ccc32)[nH]1 [Example 248] |  | 14 µM |  | 
52 | CCN(CC)CCNC(=O)c1c(C)[nH]c(/C=C2\C(=O)Nc3cc(-c4ccc5cn[nH]c(=O)c5c4)ccc32)c1C [Example 252] |  | 23.9 µM |  | 
53 | Cc1cc(C)c(/C=C2\C(=O)Nc3ccc(-c4ccc(C(=O)c5ccccc5)cc4)cc32)[nH]1 [Example 260] |  | 22.4 µM | 21.8 µM | 
54 | COc1ccc(-c2ccc3c(c2)/C(=C/c2[nH]c(C)cc2C)C(=O)N3)c(C)c1 [Example 263] |  | 19.8 µM | 24.8 µM | 
